Measurements as given in patent US8232289B2, “Spiropiperidine compounds as ORL-1 receptor antagonists” (Eli Lilly and Company, priority 2009, dated 2012).
Marks after values point to notes of the source that are not given here.

How the values were obtained:
[1] = Rat hepatic microsomal glutathione trapping assay; type: in vitro ADME; conditions: hepatic microsomal homogenate, glutathione as nucleophile
Text: Assuming that reactive metabolites may play a role in clinical IDRs, minimizing the potential for oxidative bioactivation has been proposed as a means of improving the overall safety profile of compounds containing structural features associated with such reactivity. (see Baillie, Thomas A., Approaches to the Assessment of Stable and Chemically Reactive Drug Metabolites in Early Clinical Trials, Chemical Research in Toxicology, vol 22(2) 2009.) To this end, representative compounds of the present invention and related compounds are screened using a rat hepatic microsomal trapping assay, using glutathione as an endogenous nucleophile, to understand the potential for oxidative bioactivation of the thienyl moiety. […] Of the compounds tested, those wherein R^2a and R^2b are fluoro are found to not show glutathione conjugate formation.

[2] = target: T1, cloned human ORL1/nociceptin receptors (Homo sapiens, UniProt P41146); assay: Functional blockade of agonist-mediated G-protein activation, GTP-γ-[35S] binding; type: biochemical; conditions: stimulation with 300 nM nociceptin/OFQ; read-out: Kb for the ORL-1 receptor (antagonist affinity)
T1 construct: expressed in transfected cells
T1 sequence (P41146 whole entry): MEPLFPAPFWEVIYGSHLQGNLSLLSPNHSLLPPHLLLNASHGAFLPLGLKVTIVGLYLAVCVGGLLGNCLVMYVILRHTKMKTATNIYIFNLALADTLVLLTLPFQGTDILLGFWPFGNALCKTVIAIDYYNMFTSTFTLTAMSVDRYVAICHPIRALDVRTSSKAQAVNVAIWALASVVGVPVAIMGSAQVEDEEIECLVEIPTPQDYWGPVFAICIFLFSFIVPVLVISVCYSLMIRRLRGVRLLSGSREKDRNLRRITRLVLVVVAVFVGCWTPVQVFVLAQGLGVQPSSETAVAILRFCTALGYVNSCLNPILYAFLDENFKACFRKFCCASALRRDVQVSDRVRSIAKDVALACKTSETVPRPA
Text: Agonist-mediated stimulation of G-protein coupled receptors results in the activation of membrane associated Gαβγ-protein heterotrimer complexes, and represents the first step in the transduction of extracellular signals to modification of intracellular pathways. The first step in activation of receptor-mediated activation of Gαβγ-proteins heterotrimer is the exchange of Gα subunit bound guanosine diphoshpate (GDP) for guanosine triphosphate (GTP). The binding of GTP to the Gα subunit causes dissociation of the heterotrimer subunits, Gβ and Gγ, resulting in the modulation of several intracellular signaling cascades. Measurement of receptor-mediated G-protein activation can be measured using the non-hydrolyzable radiolabeled analog of GTP, GTP-γ-[35S]. Utilizing this methodology, antagonist affinity (Kb) is measured in membranes expressing cloned human ORL1/nociceptin receptors using a GTP-γ-[35S] binding assay according to previously described protocols with minor modifications (DeLapp et al., J Pharmacol Exp Ther. 1999 May; 289(2):946-55; Ozaki et al., Eur J Pharmacol. 2000 Aug. 18; 402(1-2):45-53). Assays are conducted in a 200-μl volume with the following buffer composition: 100 mM NaCl, 20 mM HEPES, 5 mM MgCl2, 1 mM EDTA, 0.1% BSA, 3 μM GDP, 0.5 nM [^35S]GTPγS. ORL1 receptor membrane suspension is added at a concentration of 20 μg protein per well and receptor stimulation is achieved using 300 nM nociceptin/OFQ. Wheat germ agglutinin coated SPA beads (Amersham, Arlington Hts., IL) are added at 1 mg per well to detect membrane-bound [^35S]GTPγS. Plates are sealed and incubated for 2 hr. at room temperature. Plates are then placed at 4° C. overnight to allow the SPA beads to settle and then counted in a Wallac Microbeta. Specific [^35S]GTPγS binding is determined as the difference in CPM observed in the absence and presence of 10 μM unlabeled GTPγS. Data are plotted as the percent of specific [^35S]GTPγS bound. Curves are plotted as the percent of specific binding and IC50 values are determined using a sigmoidal dose response curve with variable slope. […]

male NIH-Swiss mice = assay: Forced-swim test in mice (mFST); type: in vivo
Text: (§1) mFST is an established in vivo assay for antidepressant activity (Li et al. J Pharmacol Exp Ther. 319(1):254-9, 2006.). […] The mFST was used to evaluate potential antidepressant-like activity of novel nociceptin/ORL1 antagonists according to previously published methods (Li et al. J Pharmacol Exp Ther. 319(1):254-9, 2006.). Briefly, male NIH-Swiss mice (Harlan Sprague-Dawley, Indianapolis, Ind.) weighing between 25-30 g are used. Group housed animals are removed from the vivarium to the testing area in their own cages and allowed to adapt to the new environment for at least 1 hour before testing. Alternatively, male 129S6 wild type and nociceptin/ORL1 receptor knockout mice were used to confirm dependence of the response to compound was nociceptin/ORL1 receptor dependent. All compounds are prepared in 20% Captisol, 25 mM phosphate buffer, pH 2.0 on the day of use. Mice are placed in a cylinder (diameter: 10 cm; height: 25 cm) filled with 6 cm of water (22-25° C.) for 6 min. The duration of immobility during the last 4 min. of the 6 min. period of the test was scored. A mouse is recorded as immobile when floating motionless or making only those movements necessary to keep its head above water.

[3] = system: 129S6 wild type and nociceptin/ORL1 receptor knockout mice; assay: mFST in wild type and ORL-1 knockout mice; type: in vivo
Text: as §1
Yet further, these effects of reduced immobilization times are not observed when ORL-1 knockout mice, a strain of mice engineered to lack the ORL-1 receptor, are used, showing that the effect is indeed mediated by the ORL-1 receptor.

Male Sprague-Dawley rats = assay: Rat dural plasma protein extravasation (PPE) model, oral dosing; type: in vivo; conditions: 1.0 mg/kg po
Experimental: All test compounds are prepared in a vehicle solution containing 20% Captisol in 25 mM phosphate buffer (pH 2.0). The positive control compound, sumatriptan, is dissolved in saline. Male Sprague-Dawley rats from Harlan Laboratories (250 to 350 g), that have been fasted overnight, are dosed with test compound, sumatriptan or vehicle by oral gavage (2 mL/kg). Fifty min. post-dose the rats are anesthetized with Nembutal (60 mg/kg, ip) and placed in a stereotaxic frame with the incisor bar set at −2.5 mm. Following a mid-line sagittal scalp incision, 2 pairs of bilateral holes were drilled through the skull (3.2 mm posteriorly, 1.8 and 3.8 mm laterally, all coordinates referenced to bregma). Pairs of stainless steel stimulating electrodes (Rhodes Medical Systems Inc), insulated except at the tips, are lowered through the holes in both hemispheres to a depth of 9.2 mm below the dura.
A solution of fluoroscein isothiocyanate (FITC) dye-labeled bovine serum albumin (BSA) (FITC-BSA) (20 mg/kg, iv), is injected into the femoral vein 2 minutes prior to electrical stimulation of the trigeminal ganglion to function as the marker for protein extravasation. Sixty minutes following dosing with test compound or vehicle, the left trigeminal ganglion is electrically stimulated for 5 minutes at a current intensity of 1.0 mA (5 Hz, 5 minutes duration).
Five minutes following stimulation, the rats are killed by exsanguination with 40 mL of saline which also rinses residual FITC/BSA out of the blood vessels. The top of the skull is removed to collect the dural membranes. The membrane samples are removed from both hemispheres, rinsed with water, and spread flat on microscope slides. The slides are dried for 15 minutes on a slide warmer and cover-slipped with a 70% glycerol/water solution.
A fluorescence microscope equipped with a grating monochromator and a spectrophotometer is used to quantify the amount of FITC-BSA dye in each dural sample. The microscope is equipped with a motorized stage interfaced with a personal computer. This facilitates the computer-controlled movement of the stage, with fluorescence measurements at 25 points (500 μm steps) on each dural sample. The extravasation induced by electrical stimulation of the trigeminal ganglion is an ipsilateral effect (that is occurs only on the side of the dura in which the trigeminal ganglion is stimulated). This allows the other (unstimulated) half of the dura to be used as a control. The extravasation ratio (that is the ratio of the amount of extravasation in the dura from the stimulated side compared to the unstimulated side) is calculated. Animals dosed with vehicle alone or an ineffective dose of the test compound have an extravasation ratio of approximately 2, while totally effective treatments result in a ratio of approximately 1.
Results are expressed as mean values with standard errors of the mean (±SEM). All statistical evaluations are conducting utilizing ANOVA followed by comparison to the control group by Dunnett's Method. Statistical significance is assumed when p<0.05. Statistical analyses are performed using JMP statistical analysis software (SAS Research Institute, version 6.0.2).

[4] = system: wild type and ORL knockout mice; assay: Blockade of fasting-induced hyperphagia in mice; type: in vivo
Text: Blockade of fasting-induced hyperphagia in rodents is an accepted model for hyperphagic eating disorders. […] Mice are individually housed a minimum of 3 days prior to the onset of testing to eliminate any effects of stress due to the change from group to individual housing. Three mice/genotype are randomly assigned to each treatment group on the test day. Pre-fast body weight measurements are taken, and food is then removed from cages overnight. Mice are fasted for approximately 15 hr. The next morning, the mice are given one of three doses of drug or vehicle via oral gavage 30 min. prior to gaining access to food. Drugs are dissolved in 20% Captisol dissolved in 25 mM phosphate buffer, pH 2.0. Measurements of body weight are taken immediately prior to drug treatment or 24 hr. after access to food is restored. […] Measurements of food intake are recorded 1 hr following access to food, as indicated, by weight of food remaining at 1 hr. It should be noted that food intake measured is during the light phase, a time during which mice are typically at rest and not normally eating. Following initial testing, mice are rested for 1 week with access to unlimited chow.

For `Cc1nn(-c2c(F)cccc2C(N)=O)cc1CN1CCC2(CC1)OCCc1c2sc(F)c1F.O=C(O)C(O)C(O)C(=O)O` [3-fluoro-2-[4-[(2,3-difluorospiro[4,5-dihydrothieno[2,3-c]pyran-7,4′-piperidine]-1′-yl)methyl]-3-methyl-pyrazol-1-yl]benzamide (L) Tartrate, reference compound], the Glutathione conjugate formation [1] was “Yes”.
With `Cc1nn(-c2c(F)cccc2C(N)=O)cc1CN1CCC2(CC1)OCCc1cc(F)sc12.O=C(O)C(O)C(O)C(=O)O` [3-fluoro-2-[4-[(2-fluorospiro[4,5-dihydrothieno[2,3-c]pyran-7,4′-piperidine]-1′-yl)methyl]-3-methyl-pyrazol-1-yl]benzamide (L) Tartrate, reference compound] the Glutathione conjugate formation [1] was “Yes”.
`Cc1nn(-c2ncccc2CO)cc1CN1CCC2(CC1)OCC(F)(F)c1cc(Cl)sc12` [Example 1, [2-[4-[(2-Chloro-4,4-difluoro-spiro[5H-thieno[2,3-c]pyran-7,4′-piperidine]-1′-yl)methyl]-3-methyl-pyrazol-1-yl]-3-pyridyl]methanol (L)-tartrate] showed a Kb [2] of 200 pM.
In the case of `COCc1cccnc1-n1cc(CN2CCC3(CC2)OCC(F)(F)c2cc(F)sc23)c(C)n1.O=C(O)C(O)C(O)C(=O)O` [Example 10, 2,4,4-Trifluoro-1′-[[1-[3-(methoxymethyl)-2-pyridyl]-3-methyl-pyrazol-4-yl]methyl]spiro[5H-thieno[2,3-c]pyran-7,4′-piperidine] (L)-Tartrate], the Glutathione conjugate formation [1] is reported as “No”.
With `COCc1cccnc1-n1cc(CN2CCC3(CC2)OCCc2cc(Cl)sc23)c(C)n1.O=C(O)C(O)C(O)C(=O)O` [Example 14, 2-Chloro-1′-[[1-[3-(methoxymethyl)-2-pyridyl]-3-methyl-pyrazol-4-yl]methyl]spiro[4,5-dihydrothieno[2,3-c]pyran-7,4′-piperidine] (L)-Tartrate] the Glutathione conjugate formation [1] was “Yes”.
With `CN(C)CCCN1c2ccccc2CCc2ccccc21` [Imiprimine, reference compound] the “Immobilization Time” value (male NIH-Swiss mice; 15 mg/kg, positive control) was 96* sec, the “effect on immobilization time” value ([3]; ORL-1 knockout mice) was “reduce immobilization times in both the wild type and knockout mice to an equivalent degree” and the “effect on immobilization time” value ([3]; wild type mice) was “reduce immobilization times in both the wild type and knockout mice to an equivalent degree”.
With `CNS(=O)(=O)Cc1ccc2[nH]cc(CCN(C)C)c2c1` [Sumatriptan, reference compound] the “Extravasation Ratio (mean)” value (Male Sprague-Dawley rats) was 1.06*.
For `CNCCC(Oc1ccc(C(F)(F)F)cc1)c1ccccc1` (stereo not drawn) [fluoxetine, reference compound], the “Immobilization Time” value (male NIH-Swiss mice; 10 mg/Kg, alone) was 168 s.
With `Clc1cccc(N2CCNCC2)c1` [mCPP, meta-chlorophenylpiperazine, reference compound] the “effect on fasting-induced hyperphagia” value ([4]; ORL-1 knockout mouse strain) was “significantly reduce fasting induced hyperphagia equally in both wild type mice and the ORL-1 knockout mouse strain” and the “effect on fasting-induced hyperphagia” value ([4]; wild type mice, oral gavage 30 min. prior to food, food intake at 1 hr) was “significantly reduce fasting induced hyperphagia equally in both wild type mice and the ORL-1 knockout mouse strain”.
